Here are results for two substances from patent US20220257782A1, “PEPTIDE THERAPEUTICS FOR AUTOIMMUNE DISEASES AND INFLAMMATORY DISEASES” (GENESEN CO., LTD., priority 2019, published 2022).

Ends that are not written are not given here.

One data set deals with T1, TLR4 (Mus musculus, UniProt Q9QUK6).
T1 construct: endogenous in cells; host or cells: RAW264.7
T1 sequence (Q9QUK6 26-835): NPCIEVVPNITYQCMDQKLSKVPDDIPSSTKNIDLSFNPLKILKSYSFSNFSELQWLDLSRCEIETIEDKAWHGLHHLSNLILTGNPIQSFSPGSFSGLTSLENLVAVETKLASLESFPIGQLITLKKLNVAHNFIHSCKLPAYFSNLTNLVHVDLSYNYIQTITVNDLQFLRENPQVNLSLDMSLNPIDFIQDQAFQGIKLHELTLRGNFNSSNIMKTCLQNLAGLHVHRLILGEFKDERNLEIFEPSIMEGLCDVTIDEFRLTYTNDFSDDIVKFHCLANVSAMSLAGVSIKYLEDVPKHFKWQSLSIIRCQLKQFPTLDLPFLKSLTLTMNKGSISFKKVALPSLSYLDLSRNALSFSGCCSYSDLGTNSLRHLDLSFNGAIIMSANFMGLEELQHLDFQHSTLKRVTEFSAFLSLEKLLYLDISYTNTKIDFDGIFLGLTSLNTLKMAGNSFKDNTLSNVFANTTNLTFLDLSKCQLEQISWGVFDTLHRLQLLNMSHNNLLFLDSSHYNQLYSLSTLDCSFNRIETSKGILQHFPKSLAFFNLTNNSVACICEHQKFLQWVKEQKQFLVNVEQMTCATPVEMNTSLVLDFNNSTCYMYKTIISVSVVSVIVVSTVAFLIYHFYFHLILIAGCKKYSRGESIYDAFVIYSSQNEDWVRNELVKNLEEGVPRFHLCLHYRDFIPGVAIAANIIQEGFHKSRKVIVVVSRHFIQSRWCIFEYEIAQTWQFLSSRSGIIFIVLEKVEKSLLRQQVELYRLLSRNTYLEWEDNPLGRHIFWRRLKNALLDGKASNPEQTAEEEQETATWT
T1 sequence (Q9JHF9 19-160 partner): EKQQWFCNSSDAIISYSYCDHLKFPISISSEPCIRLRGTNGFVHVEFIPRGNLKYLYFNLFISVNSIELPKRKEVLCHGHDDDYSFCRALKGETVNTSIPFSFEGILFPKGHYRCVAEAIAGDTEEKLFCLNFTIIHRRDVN
Put plainly: Cytokine secretion (ELISA) in LPS-stimulated RAW264.7 cells. In kind it is cell-based. The conditions noted are these: FIG. 2E. On the procedure: THP-1-derived macrophages and RAW264.7 cells were dispensed into 96-well plates (BD Biosciences) at a density of 2×10^5 cells/well and cultured overnight. After 24 hours of treatment, IL-6 secretion was analyzed using Mouse IL-6 ELISA MAX™ Deluxe (BioLegend, San Diego, Calif., USA), and TNF-α production was evaluated using the Mouse TNF alpha ELISA Ready-SET-GO!® kit (eBioscience, San Diego, Calif., USA). Then, the plate was analyzed at each wavelength using a microplate spectrophotometer system (Molecular Devices).
(ELISA stands for enzyme-linked immunosorbent assay.)

Another data set has as its system HEK-Blue™ hTLR4 cells. The experiment in a line: Cell viability assay (MTT/MTS), HEK-BLUE hTLR4 cells. Type of data set: cell-based, human. The conditions noted are these: FIG. 2A. As for the experimental part: (§1) HEK-BLUE™ hTLR4 cells were dispensed at a density of 5×10^4 cells/well, and RAW264.7 cells and THP-1 cells were dispensed thereinto at a density of 2×10^5 cells/well. All cells were cultured overnight in 96-well plates (BD Biosciences, San Jose, Calif., USA). Cell viability was determined using colorimetric […] (MTT) assay (Sigma-Aldrich) and/or MTS (3-(4,5-dimethylthiazol-2-yl)-5-(3-carboxymethoxyphenyl)-2-(4-sulfophenyl)-2H-tetrazolium) (Promega Madison, Wis., USA), which was performed as described previously (Kwon, H. K. et al., Toxicological sciences: an official journal of the Society of Toxicology 148, 204-219 (2015)).

Another data set has as its system THP-1 cells. The experiment in a line: Cell viability assay (MTT/MTS), THP-1 cells. Type of data set: cell-based, human. The note with it: FIG. 2C. As for the experimental part:
as §1

Data set [1] relates to IMQ-induced psoriasis in C57BL/6 mice. Put plainly: Imiquimod-induced psoriasis mouse model. In kind it is in vivo. The note with it: FIG. 5D. On the procedure:
6-7 week old C57BL/6 mice were purchased from Orient Bio Inc. (Seongnam, Korea). The mice were housed under specific pathogen-free conditions and provided ad libitum with a standard laboratory diet (STD). All the animal experiments were approved by the Institutional Animal Care and Use Committee (IACUC) of Ajou University (Approval No. 2017-0002). 62.5 mg of ALDARA™ cream (including 5% IMQ; Aldara, 3M Pharmaceutical LLC.) was applied for five consecutive days, resulting in symptoms similar to psoriasis. The normal group was not treated with IMQ but only injected with PBS. […] Factors such as erythema, scaling, wrinkles, and thickening were independently scored from 0 to 4: 0, none; 1, a little; 2, middle; 3, significant; 4, very prominent. Erythema, scaling, and thickness were scored under the close supervision of an experienced researcher. […]
A skin sample obtained from the dorsal lesion of each mouse was fixed in 4% paraformaldehyde solution, embedded in paraffin, and sectioned at a thickness of 7 μm on a glass slide. […] The thickness of the skin was measured using a Leica DMi8 fluorescence microscope which utilizes a Leica LAS X Hardware Configurator. IMQ-mediated inflammation in the skin was evaluated using a mouse-specific HRC/DAB Detection IHC Kit (Abcam, Cat. No. AB64259) with primary antibodies recognizing CD68, CD4, and IL-17. […]

Another data set has as its system RAW264.7 cells. Put plainly: Cell viability assay (MTT/MTS), RAW264.7 cells. Type of data set: cell-based, mouse. The conditions noted are these: concentration of 50 μM or below; FIG. 2B. On the procedure: as §1

As for PFVYLI (cell penetrating peptide), the “inhibitory effect on LPS-stimulated RAW 264.7 cells” value in the data set with TLR4 is “did not show any inhibitory effect”.

Take RQIKIWFQNRRMKWKKPWCKYQMLQALT [MIP2]: in the data set on HEK-Blue™ hTLR4 cells, the “toxicity in HEK-Blue hTLR4 cells” value is given as “do not show toxicity”. The “toxicity in THP-1 cells” value in the data set on THP-1 cells is “does not show toxicity”. For the same substance, the body weight entry in data set [1] is “no significant difference compared to PBS- and MTX-treated mice”. Moreover, the “cytotoxic effect in RAW264.7 cells” value in the data set on RAW264.7 cells is “absence of a cytotoxic effect”.
